# Results from patent US8338565B2, “Macrocyclic compounds for inhibition of tumor necrosis factor alpha” (Ensemble Therapeutics Corporation, priority 2008, dated 2012).
# Where two headings read alike, the source gives them in different places. Bridge positions count the residues as written; N and C are the ends. Square brackets hold non-standard residues; d marks the D form. Peptide text beside a SMILES is read from it. Bip = N[C@@H](Cc1ccc(-c2ccccc2)cc1)C(=O)O; Phe(4-NH2) = Nc1ccc(C[C@H](N)C(=O)O)cc1; d2Thi = N[C@H](Cc1cccs1)C(=O)O; GABA = NCCCC(=O)O
# Key:
# [1] = target: T1, TNFα / TNFα receptor (TNFα R1/Fc) (Homo sapiens, UniProt P01375); assay: Inhibition of binding of TNFα to the TNFα receptor (plate ELISA competition); details: Table 2
# T1 construct: purchased R&D Systems
# T1 sequence (P01375 77-233 limits assumed, species assumed): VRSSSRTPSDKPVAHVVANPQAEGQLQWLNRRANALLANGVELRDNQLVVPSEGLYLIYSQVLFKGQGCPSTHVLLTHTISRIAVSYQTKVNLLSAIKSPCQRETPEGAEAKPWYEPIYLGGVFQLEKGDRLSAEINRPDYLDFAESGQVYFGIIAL
# Summary of the method: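 Compound dilutions were preincubated 30 min at RT with 8.33 nM TNFα R1/Fc in PBST with 2% DMSO, then added to wells coated with 15 nM TNFα for 30 min. Bound receptor was detected with HRP anti-human Fc and TMB, read as A450.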
# [2] = tested on: TNF-α (degradation of IkB in HeLa cells or A431 cells); assay: Human cell-based assay: inhibition of TNF-α induced degradation of IkB; details: for inhibition at 5 µM: read-out: Inhibition at Various Compound Concentrations, 5 μM; for inhibition at 10 µM: read-out: Inhibition at Various Compound Concentrations, 10 μM
# [3] = read-out: Activity (IC50, inhibition of TNFα binding to TNFα R1/Fc)
# [4] = 5 μM compound, HeLa or A431 cells
# [5] = 10 μM compound, HeLa or A431 cells
Structure (SMILES),"IC50 ([1]; Activity (IC50, inhibition of TNFα binding to TNFα R1/Fc)) [µM]",inhibition at 5 µM [2] [%],inhibition at 10 µM [2] [%],"IC50 [1, 3] [µM]","inhibition at 5 µM [2, 4] [%]","inhibition at 10 µM [2, 5] [%]"
O=C1COc2ccc(cc2)C[C@@H](C(=O)NC2(C(=O)O)CC2)NC(=O)[C@H](Cc2ccccc2)NC(=O)[C@H](Cc2ccc(-c3ccccc3)cc2)NC(=O)[C@H](Cc2cccs2)N1 [Compound 344],< 10,10 to 50,50 to 80,–,–,–
O=C(O)[C@H](Cc1ccccc1)NC(=O)[C@@H]1Cc2ccc(cc2)NC(=O)[C@H](O)[C@@H](O)C(=O)N[C@H](Cc2cccs2)C(=O)N[C@@H](Cc2ccc(-c3ccccc3)cc2)C(=O)N[C@H](CCc2ccccc2)C(=O)N1 [Compound 350],–,–,–,< 10,10 to 50,10 to 50
O=C1COc2ccc(cc2)C[C@@H](C(=O)O)NC(=O)[C@H](Cc2ccccc2)NC(=O)[C@H](Cc2ccc(-c3ccc(F)cc3)cc2)NC(=O)[C@H](Cc2cccs2)N1 [Compound 363],–,50 to 80,10 to 50,< 10,–,–
COc1ccc(-c2ccc(C[C@@H]3NC(=O)[C@H](Cc4cccs4)NC(=O)COc4ccc(cc4)C[C@@H](C(=O)O)NC(=O)[C@H](Cc4ccccc4)NC3=O)cc2)cc1 [Compound 364],–,50 to 80,10 to 50,< 10,–,–
O=C1COc2ccc(cc2)C[C@@H](C(=O)O)NC(=O)[C@H](Cc2ccccc2)NC(=O)[C@H](Cc2ccc(-c3ccncc3)cc2)NC(=O)[C@H](Cc2cccs2)N1 [Compound 366],–,< 10,< 10,< 10,–,–
CC(=O)NCCCC[C@@H]1NC(=O)[C@@H](Cc2ccc(-c3ccccc3)cc2)NC(=O)[C@H](Cc2cccs2)NC(=O)COc2ccc(cc2)C[C@@H](C(=O)O)NC1=O [Compound 369],–,–,–,10 to 30,< 10,< 10
NCCCC(=O)N[C@H]1CC(=O)Nc2ccc(cc2)C[C@@H](C(=O)O)NC(=O)[C@@H](Cc2ccccc2)NC(=O)[C@H](Cc2ccc(-c3ccccc3)cc2)NC(=O)[C@@H](Cc2cccs2)NC1=O [Compound 379] (H-[GABA]D[d2Thi][Bip][dF][Phe(4-NH2)]-OH; lactam 2-6),–,–,–,< 10,50 to 80,10 to 50
NCCCC(=O)N[C@@H]1CC(=O)Nc2ccc(cc2)C[C@@H](C(=O)O)NC(=O)[C@@H](Cc2ccccc2)NC(=O)[C@H](Cc2ccc(-c3ccccc3)cc2)NC(=O)[C@@H](Cc2cccs2)NC1=O [Compound 380] (H-[GABA][dD][d2Thi][Bip][dF][Phe(4-NH2)]-OH; lactam 2-6),–,–,–,< 10,< 10,< 10
NCCCC(=O)N[C@H]1CC(=O)N[C@H](Cc2cccs2)C(=O)N[C@@H](Cc2ccc(-c3ccccc3)cc2)C(=O)N[C@H](Cc2ccccc2)C(=O)N[C@H](C(=O)O)Cc2ccc(cc2)NC1=O [Compound 381],–,–,–,< 10,< 10,< 10
NCCCC(=O)N[C@@H]1CC(=O)N[C@H](Cc2cccs2)C(=O)N[C@@H](Cc2ccc(-c3ccccc3)cc2)C(=O)N[C@H](Cc2ccccc2)C(=O)N[C@H](C(=O)O)Cc2ccc(cc2)NC1=O [Compound 382],–,–,–,< 10,10 to 50,< 10
